The numbers were not newly measured in patent US20230346892A1, “TREATMENT OF LONG BONE FRACTURES WITH ABALOPARATIDE” (Radius Health, Inc., priority 2021, published 2023), which cites them from elsewhere.

The subject of data set [1] is osteoporosis.
Data set [2] has as its system internally fixed femur fractures. The settings on record: rats with internally fixed femur fractures; Lanske et al. 2019.

As to abaloparatide, the “bone mineral density increases” value in data set [1] (compared with teriparatide, treating osteoporosis, Sleeman 2019, Miller 2016) is on record as “greater bone mineral density increases”. The hypercalcemia entry in data set [1] (in vivo) was “less hypercalcemia”. The fracture healing result in data set [2] is “improved fracture healing”.
